Results taken from ChEMBL document CHEMBL4680141, “Novel benzimidazole-acrylonitrile hybrids and their derivatives: Design, synthesis and antimycobacterial activity” (2020).
Values after ≈ are worked out from the molar mass of the structure shown.

What follows are compounds tested on Mycobacterium tuberculosis (assay: Antimycobacterial activity against Mycobacterium tuberculosis H37Rv assessed as inhibition of bacterial growth incubated for 7 days by MABA assay). Conditions: 168 h, time 7 day.
Assay type: functional

SMILES | MIC [µg/mL]
CN1CCN(c2ccc(/C=C(\C#N)c3nc4ccccc4[nH]3)cc2)CC1 | > 25
COc1cccc(N2CCN(c3ccc(/C=C(\C#N)c4nc5ccccc5[nH]4)cc3)CC2)c1 | > 25
N#C/C(=C\c1ccc(N2CCN(c3ccc(Cl)cc3)CC2)cc1)c1nc2ccccc2[nH]1 | > 25
N#C/C(=C\c1ccc(N2CCN(Cc3ccccc3)CC2)cc1)c1nc2ccccc2[nH]1 | > 25
N#CC(Cc1ccc(N2CCN(c3ccccc3)CC2)cc1)c1nc2ccccc2[nH]1 (stereo not given) | > 25
N#C/C(=C\c1ccc(N2CCN(c3ccc(Br)cc3)CC2)cc1)c1nc2ccccc2[nH]1 | > 25
N#C/C(=C\c1ccc(N2CCN(c3ccc(F)cc3)CC2)cc1)c1nc2ccccc2[nH]1 | > 25
N#C/C(=C\c1ccc(N2CCN(C3CCCCC3)CC2)cc1)c1nc2ccccc2[nH]1 | > 25
COc1ccc(N2CCN(c3ccc(CC(C#N)c4nc5ccccc5[nH]4)cc3)CC2)cc1 (stereo not given) | > 25
N#C/C(=C\c1ccc(N2CCN(c3cccc(Cl)c3)CC2)cc1)c1nc2ccccc2[nH]1 | > 25
Cc1ccc(N2CCN(c3ccc(/C=C(\C#N)c4nc5ccccc5[nH]4)cc3)CC2)cc1 | 0.78 (≈ 1.86 µM)
Cc1ccc(N2CCN(c3ccc(CC(C#N)c4nc5ccccc5[nH]4)cc3)CC2)cc1 (stereo not given) | > 25
N#C/C(=C\c1ccc(N2CCN(Cc3ccc(F)cc3)CC2)cc1)c1nc2ccccc2[nH]1 | 25 (≈ 57.1 µM)
N#C/C(=C\c1ccc(N2CCN(c3ccccc3)CC2)cc1)c1nc2ccccc2[nH]1 | 6.25 (≈ 15.4 µM)
CC(=O)N1CCN(c2ccc(/C=C(\C#N)c3nc4ccccc4[nH]3)cc2)CC1 | 12.5 (≈ 33.7 µM)
COc1ccc(N2CCN(c3ccc(/C=C(\C#N)c4nc5ccccc5[nH]4)cc3)CC2)cc1 | 6.25 (≈ 14.4 µM)
CC[C@@H](CO)NCCN[C@@H](CC)CO [ETHAMBUTOL] | 1.56 (≈ 7.64 µM)
NNC(=O)c1ccncc1 [ISONIAZID] | 0.05 (≈ 0.365 µM)
CO[C@H]1/C=C/O[C@@]2(C)Oc3c(C)c(O)c4c(O)c(c(/C=N/N5CCN(C)CC5)c(O)c4c3C2=O)NC(=O)/C(C)=C\C=C\[C@H](C)[C@H](O)[C@@H](C)[C@@H](O)[C@@H](C)[C@H](OC(C)=O)[C@@H]1C [RIFAMPIN] | 0.1 (≈ 0.122 µM)

Each compound was assayed on Mycobacterium tuberculosis (assay: Antimycobacterial activity against dormant form of Mycobacterium tuberculosis H37Rv assessed as log fold reduction in bacterial count at 10 ug/ml under nutrient starvation condition after 7 days by MPN assay). Conditions: dose 10 µg/ml; time 7 day.
Assay type: functional

SMILES | FC
Cc1ccc(N2CCN(c3ccc(/C=C(\C#N)c4nc5ccccc5[nH]4)cc3)CC2)cc1 | 2.8
O=C(O)c1cn(C2CC2)c2cc(N3CCNCC3)c(F)cc2c1=O [CIPROFLOXACIN] | 1.5
NNC(=O)c1ccncc1 [ISONIAZID] | 1.5
COc1c(N2C[C@@H]3CCCN[C@@H]3C2)c(F)cc2c(=O)c(C(=O)O)cn(C3CC3)c12 [MOXIFLOXACIN] | 1.5
CO[C@H]1/C=C/O[C@@]2(C)Oc3c(C)c(O)c4c(O)c(c(/C=N/N5CCN(C)CC5)c(O)c4c3C2=O)NC(=O)/C(C)=C\C=C\[C@H](C)[C@H](O)[C@@H](C)[C@@H](O)[C@@H](C)[C@H](OC(C)=O)[C@@H]1C [RIFAMPIN] | 1.5

Each compound was assayed on Mycobacterium tuberculosis (assay: Antimycobacterial activity against Mycobacterium tuberculosis H37Rv assessed as inhibition of bacterial growth by MABA assay). Conditions: not given.
Assay type: functional

SMILES | MIC [µg/mL]
N#C/C(=C\c1ccccc1)n1nnc2ccccc21 | 6.25 (≈ 25.4 µM)
